According to patent US10538516B2, “Oxadiazole derivative and pharmaceutical containing same” (National Center for Geriatrics and Gerontology, priority 2015, dated 2020):

biological target: T1, GAβ-dependent amyloid fibril formation (Human Aβ1-40 + GM1-containing liposome) (Homo sapiens, UniProt P05067); test: Thioflavin T (ThT) assay of GAβ-dependent amyloid fibril formation (Aβ1-40 with GM1-containing liposome); format: biochemical; conditions: @25 μM; read-out: ThT Inhibitory activity (% inhibition)
T1 construct: Human Aβ1-40 (cat. #4307-v, prepared by Peptide Institute); purchased Peptide Institute 4307-v
T1 sequence (P05067 672-711 limits assumed): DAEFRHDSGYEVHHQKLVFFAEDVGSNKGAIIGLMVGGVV
Summary of the method: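 Human Aβ1-40 (75 μM stock) pre-incubated 10 min at room temperature with compound (75 or 15 μM solution), then GM1-containing cholesterol/sphingomyelin liposome added and incubated 37° C, 18 hours. Fibrils quantified by ThT fluorescence (ex 430/em 490 nm, pH 8.5 glycine buffer); inhibition as ratio to compound-free control.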

Structure (SMILES)	inhibition at 25 µM [%]
O=C(N[C@@H](CO)c1nc(-c2ccc(C3(F)COC3)cc2)no1)c1ccc(F)cc1 [Compound 190, 4-fluoro-N-[(1S)-1-{3-[4-(3-fluorooxetan-3-yl)phenyl]-1,2,4-oxadiazol-5-yl}-2-hydroxyethyl] benzamide]	67

same assay, conditions: inhibition rate against amyloid fibril formation, final concentration of the compound 25 μM; read-out: Inhibitory activity ABC evaluation

Structure (SMILES)	inhibition at 25 µM [%]
O=C(Cc1c[nH]c2ccccc12)NC(CO)c1nc(-c2ccc(C(F)(F)F)cc2)no1 (stereo not shown) [Compound 185, N-(2-hydroxy-1-{3-[4-(trifluoromethyl)phenyl]-1,2,4-oxadiazol-5-yl}ethyl)-2-(1H-indol-3-yl)acetamide]	40 to 80
O=C1CC(c2nc(-c3cccc(OC(F)(F)F)c3)no2)CN1c1ccc(Cl)cc1 (stereo not shown) [Compound 33]	40 to 80
O=C(N[C@@H](CO)c1nc(-c2ccc(C3(F)COC3)cc2)no1)c1ccc(F)cc1 [Compound 190, 4-fluoro-N-[(1S)-1-{3-[4-(3-fluorooxetan-3-yl)phenyl]-1,2,4-oxadiazol-5-yl}-2-hydroxyethyl] benzamide]	40 to 80
O=C1CC(c2nc(-c3ccc(OC(F)F)cc3)no2)CN1c1ccc(Cl)cn1 (stereo not shown) [Compound 62, 1-(5-chloropyridin-2-yl)-4-{3-[4-(difluoromethoxy)phenyl]-1,2,4-oxadiazol-5-yl}pyrrolidin-2-one]	40 to 80
O=C(N[C@@H](CO)c1nc(-c2nccc3ccccc23)no1)c1ccc(F)cc1 [Compound 226, 4-fluoro-N-[(1S)-2-hydroxy-1-[3-(isoquinolin-1-yl)-1,2,4-oxadiazol-5-yl]ethyl]benzamide]	40 to 80
O=C(N[C@@H](CO)c1nc(-c2ccc(C(=O)C(F)(F)F)cc2)no1)c1ccc(F)cc1 [Compound 164, 4-fluoro-N-[(1S)-2-hydroxy-1-{3-[4-(2,2,2-trifluoroacetyl)phenyl]-1,2,4-oxadiazol-5-yl}ethyl] benzamide]	> 80
O=C(N[C@H](CO)c1nnc(-c2ccc(OC(F)(F)F)cc2)o1)c1ccc(Cl)cc1 [Compound 107, (R)-4-chloro-N-(2-hydroxy-1-(5-(4-(trifluoro-methoxy)phenyl)-1,3,4-oxzdiazol-2-yl)ethyl)benzamide]	40 to 80
O=C(N[C@@H](CO)c1nc(-c2ccc(C(F)(F)F)cc2)no1)c1ccc(F)nc1 [Compound 157, 6-fluoro-N-[(1S)-2-hydroxy-1-{3-[4-(trifluoromethyl)phenyl]-1,2,4-oxadiazol-5-yl}ethyl] pyridine-3-carboxamide]	> 80
CN(C)c1ccc(-c2noc([C@H](CO)NC(=O)c3ccccc3)n2)cc1 [Compound 150, N-[(1S)-1-{3-[4-(dimethylamino)phenyl]-1,2,4-oxadiazol-5-yl}-2-hydroxyethyl] benzamide]	> 80
O=C1CC(c2nc(-c3ccc(O)c(F)c3)no2)CN1c1ccc(Cl)cc1 (stereo not shown) [Compound 74, 1-(4-chloro-phenyl)-4-{3-(3-fluoro-4-hydroxyphenyl)-1,2,4-oxadiazol-5-yl}pyrrolidin-2-one]	40 to 80
O=C(N[C@@H](CO)c1nc(-c2ccc(C(F)(F)F)cc2)no1)c1ccc(Cl)cc1F [Compound 236, 4-chloro-2-fluoro-N-[(1S)-2-hydroxy-1-{3-[4-(trifluoromethyl)phenyl]-1,2,4-oxadiazol-5-yl}ethyl]benzamide]	> 80
COc1ccc(-c2noc(C3CC(=O)N(c4ccc(Cl)cc4)C3)n2)cc1 (stereo not shown) [Compound 24, 1-(4-chlorophenyl)-4-{3-(4-methoxyphenyl)-1,2,4-oxadiazol-5-yl}pyrrolidin-2-one]	40 to 80
O=C(N[C@@H](CO)c1nc(-c2ccc(C(F)(F)F)cc2)no1)c1ccc(Cl)s1 [Compound 198, 5-chloro-N-[(1S)-2-hydroxy-1-{3-[4-(trifluoromethyl)phenyl]-1,2,4-oxadiazol-5-yl}ethyl]thiophene-2-carboxamide]	> 80
CCCN(C(=O)CCc1nc(-c2ccc(O)cc2)no1)c1cccc(Cl)c1 [Compound 19, N-(3-chlorophenyl)-3-{3-(4-hydroxyphenyl)-1,2,4-oxadiazol-5-yl}-N-propylpropanamide]	40 to 80
O=C(CCc1nc(-c2ccc(OC(F)(F)F)cc2)no1)N1CCCc2ccccc21 [Compound 12, 1-{3,4-dihydroquinolin-1(2H)-yl}-3-[3-{4-(trifluoromethoxy)phenyl}-1,2,4-oxadiazol-5-yl]propan-1-one]	40 to 80
